Measured values published in patent US20040126338A1, “Process of converting trans-lutein into cis-lutein and the uses thereof” (priority 2002, published 2004).

Legend:
[1] = Persistence of cis-isomers during heating or reflux, normal phase HPLC percent area; format: physicochemical
Method: (§1) The solvent solutions are refluxed in the following examples by placing the glass flask on a heating unit. A reflux column, which is cooled by non-recirculating cold water, is attached to the flask. The solution is then heated to the boiling point of the given liquid, except for propylene glycol, which boils at 187° C. The refluxing time varies slightly between solution samples. The refluxing times for each example are stated for each below. Samples are taken periodically to test the concentration of the cis-isomers, these are referred to as collected samples. Similarly, the oil solutions were heated in the following examples by placing the glass flask into a heated oil bath filled with mineral oil, which was stirred constantly, at 72° C.
Storing and centrifuging refers to the collected samples being placed into 12×75 mm glass culture tubes and wrapped with Parafilm® (Pechiney Plastic Packaging) and stored in a freezer until analysis. When prepped for analysis the collected samples are first warmed to room temperature and then the aliquot is centrifuged at 12,000 rpm for 5 minutes to remove trans-isomers crystals. The trans-isomer crystals are removed because the cis-isomers of lutein are known to be more soluble than the trans-isomers, which will allow them to remain in solution once formed. Next 1 ml of the centrifuged collected sample is placed into a High Performance Liquid Chromotography (HPLC) vial for analysis.
Analysis of the solutions formed from lutein and a liquid are analyzed using both normal phase HPLC and a spectophotometer. For the HPLC analysis, 1 ml of the collected sample of each solution is filtered through a 0.45 micron syringe filter into a HPLC sample vial. The sample is first dried using a nitrogen stream and then the remaining solids are dissolved in a 1 ml of a 65:35 hexane:ethylacetate mixture. […] In this way the percent area of the lutein cis-isomer peak is determined.

[2] = cited from earlier work
[3] = tested on: age-related macular degeneration; settings: consumption of lutein and zeaxanthin; cited from earlier work
[4] = Observed solubility of lutein dry cake in oils; format: physicochemical
Method: Using an analytical balance, the preparation of solution for the following examples for cis-isomerization includes placing weighed dry cake lutein into a flask and adding one of the above liquids to the flask to form the solution. The solution is first hand swirled and its solubility is observed. Following a baseline sample, which is taken at the 0 hour mark, the prepared lutein solution is placed on a heat source and refluxed for a period of time ranging between 0-120 hours.
The purpose of this preparation is to analyze the effect of heat on a solution of lutein in the above stated oils and determine whether isomerization from trans-lutein to various cis-isomers occurs, and the concentration of each isomer that is formed. The oils used in this example were corn oil, which was used as a control, corn mint oil, spearmint oil, peppermint oil, tea tree oil, and bay oil. […] The solutions were made by adding 20 ml of oil to the weighed lutein. The sample heated in an oil bath. A baseline 2 ml sample was taken and additional 2 ml samples taken at 1, 4, 8, 24, and 48 hours.
(§2) In this preparation a solution was made using 2 g of lutein dry cake and 20 ml of oil. The solution was heated in an oil bath. Samples (2 ml) were taken at 0, 1, 4, 6.5, 24, and 48 hours. As before, samples were analyzed qualitatively using normal phase HPLC and spectophotometer. However, quantitative analysis was also performed, by taking 1 ml of the HEAT (hexane, ethanol, acetone and toluene) solution previously prepared, diluting it to 25 ml in ethanol, and determining the absorbance on an UV-Vis absorption spectrophotometer. This type of analysis is often useful for quantitative measurements. All of the thyme oil samples required a 1:20 dilution of the ethanol solution before reading on the UV-Vis.
Samples containing 25% solutions were prepared using 2.5 g dry cake lutein and 10 ml of liquid. The liquid used in solution was from the group consisting of corn oil, diH2O, or Spectrum brand white thyme oil. The “dry” sample contained 2.5 g dry cake lutein and was preformed without the addition of any liquid. […]

[5] = Room temperature saturation limit and solubility on heating of lutein dry cake in solvents; format: physicochemical; settings: for Room temp. sataturation limit (%): room temperature
Method: The purpose of this preparation is to analyze the effect of heat on a solution of lutein in four solvents, hexane, ethanol, isopropanol, and acetone, to determine whether isomerization from trans-isomers of lutein to various cis-isomers occurs, and what concentration of each isomer is formed. The solutions were prepared using 100 ml of the above stated solvents to dissolve varying weights of lutein dry cake. Initial solubility limits ere tested by adding a small amount of dry cake and swirling the flask briefly. If the sample appeared saturated, it was centrifuged to verify that a pellet of undissolved material was formed. If the solution was not saturated, additional dry cake was added until saturation was reached. Once the approximate solubility at room temperature was determined for each solvent, excess dry cake was added for the increased solubility that occurs through heating and isomerization, in order to maintain saturation during the entire experiment.

[6] = Carotenoid content of lutein heated in oils at 72° C., UV-Vis absorbance at 446 nm; format: physicochemical
Method: as §1
as §2, with “Samples (2 ml) were taken at 0, 1, 4, 6.5, 24, and 48 hours.” left out

prostate cancer = settings: in vivo; cited from earlier work
[7] = among carotenoids; cited from earlier work
[8] = Cis-isomer content of supernatants versus pellets of the isopropanol solution; format: physicochemical
Method: The purpose of this preparation was to analyze the effect of isopropanol in solution with lutein, and analyze the effect of adding water to the lutein/isopropanol solution. In this example a solution was prepared by adding 2.51 g of dry cake lutein (lot 082405-08) to 50 ml isopropanol to a flask. The prepared solution was swirled and refluxed at 81° C. for 8 hours.
Samples were taken at 0, 1, 4, 6, and 8 hours to follow the isomerization. At 8 hours the sample was transferred to a 150 ml Erlenmeyer flask and placed in a freezer to cool. When partially cooled, aliquots were taken for precipitation and samples were diluted to 2:1, 1:1, and 1:2 ratios of water:isopropanol. An additional sample was prepared which contained only isopropanol solution. The samples were vortexed and centrifuged. Supernatant and pellets were collected and stored in a 1.5 ml microfuge tube until analysis.

[9] = UV absorption spectra of cis-lutein and trans-lutein; format: physicochemical
Text: FIG. 5 is a graph of the trans-lutein spectrum.
FIG. 6 is a graph of the cis-lutein spectrum.

Compound: CC(C=CC=C(C)C=CC1=C(C)CC(O)CC1(C)C)=CC=CC=C(C)C=CC=C(C)C=CC1C(C)=CC(O)CC1(C)C (single isomer, unassigned) [13,13′ cis-isomer, 13,13′ cis-lutein]
- stability for extended periods ([1]; Example 3 oils at 72° C., concentration declines after 24 hour sample): did not appear to be highly stable for extended periods
- stability ([1]; Example 4 thyme oils at 72° C., 4-48 hours): appears to be stable

Compound: CC1=C[C@H](O)CC(C)(C)[C@H]1/C=C/C(C)=C/C=C/C(C)=C/C=C/C=C(C)/C=C/C=C(C)/C=C/C1=C(C)C[C@@H](O)CC1(C)C (single isomer, unassigned) [trans-isomers of lutein, trans-lutein]
- stability in crystalline forms ([2]; crystalline forms): stable in crystalline forms

Compound: CC1=C(/C=C/C(C)=C/C=C/C(C)=C/C=C/C=C(C)/C=C/C=C(C)/C=C/C2=C(C)C[C@@H](O)CC2(C)C)C(C)(C)C[C@H](O)C1 [Zeaxanithin, zeaxanthin]
- reduction in age-related macular degeneration [3]: 57%

Compound: CC1=C[C@H](O)CC(C)(C)[C@H]1/C=C/C(C)=C/C=C/C(C)=C/C=C/C=C(C)/C=C/C=C(C)/C=C/C1=C(C)C[C@@H](O)CC1(C)C [lutein dry cake, lutein]
- solubility in corn oil compared with thyme oils ([4]; Example 4, 2 g dry cake in 20 ml oil): least soluble in corn oil
- Room temp. sataturation limit (%) ([5]; in acetone): ˜0.45%
- Room temp. sataturation limit (%) ([5]; in ethanol): ˜0.3%
- Room temp. sataturation limit (%) ([5]; in hexane): <1%
- solubility when the solution was heated ([5]; in isopropanol, reflux): increased dramatically
- Room temp. sataturation limit (%) ([5]; in isopropanol): ˜0.2%
- carotenoid concentration observed ([6]; thyme oil, predicted concentration 10%): 7.18%

Compound: CC1=C[C@H](O)CC(C)(C)[C@H]1/C=C/C(C)=C/C=C/C(C)=C/C=C/C=C(C)/C=C/C=C(C)/C=C/C1=C(C)C[C@@H](O)CC1(C)C [lutein]
- solubility in corn oil compared with the other oils ([4]; Example 3, corn mint, spearmint, peppermint, tea tree and bay oil, 3 mg or 4 mg in 20 ml): less soluble in corn oil than in the other oils
- solubility when heated in white thyme oil ([4]; Example 5, 25% w/v, Spectrum white thyme oil): good solubility
- reduction in age-related macular degeneration [3]: 57%
- time for which lutein was stable (carotenoid content) ([6]; in thyme oil): about 6.5 hours

Compound: CC(C)=CCC/C(C)=C/C=C/C(C)=C/C=C/C(C)=C/C=C/C=C(C)/C=C/C=C(C)/C=C/C=C(\C)CCC=C(C)C [lycopene]
- reducing the risk of prostate cancer (prostate cancer): active in reducing the risk of prostate cancer
- oxygen quenching [7]: best carotenoid oxygen quencher

Compound: cis-lutein [cis-isomers of lutein]
- stability of the cis-isomer formed ([1]; propylene glycol reflux (75° C.), content decreased after four hours): not stable
- solubility compared with trans-isomers [8]: higher than trans-isomers
- stability upon reflux in ethanol ([2]; reflux in ethanol): easily reverted to the more thermodynamically stable trans-isomers
- ultraviolet light (UV) absorption compared with trans-isomer lutein [9]: higher
